Experimental data as given in PubChem BioAssay (NCI).
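Following 48 hours of exposure in 96-well plates, responses at five concentrations were used to interpolate endpoints linearly. The concentration for full growth arrest is given as TGI.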

Key:
Assay in all cases: NCI anticancer screen, dose series, 48 h
786-0 renal = test system: 786-0 renal
A498 renal = test system: A498 renal
A549 NSCLC = test system: A549 NSCLC
ACHN renal = test system: ACHN renal
BT-549 breast = test system: BT-549 breast
CAKI-1 renal = test system: CAKI-1 renal
CCRF-CEM leukemia = test system: CCRF-CEM leukemia
COLO 205 colon = test system: COLO 205 colon
DU-145 prostate = test system: DU-145 prostate
EKVX NSCLC = test system: EKVX NSCLC
HCC-2998 colon = test system: HCC-2998 colon
HCT-116 colon = test system: HCT-116 colon
HCT-15 colon = test system: HCT-15 colon
HL-60(TB) leukemia = test system: HL-60(TB) leukemia
HOP-62 NSCLC = test system: HOP-62 NSCLC
HOP-92 NSCLC = test system: HOP-92 NSCLC
HS 578T breast = test system: HS 578T breast
HT29 colon = test system: HT29 colon
IGROV1 ovarian = test system: IGROV1 ovarian
K-562 leukemia = test system: K-562 leukemia
KM12 colon = test system: KM12 colon
LOX IMVI melanoma = test system: LOX IMVI melanoma
M14 melanoma = test system: M14 melanoma
MALME-3M melanoma = test system: MALME-3M melanoma
MCF7 breast = test system: MCF7 breast
MDA-MB-231 breast = test system: MDA-MB-231 breast
MDA-MB-435 = test system: MDA-MB-435
MDA-N = test system: MDA-N
MOLT-4 leukemia = test system: MOLT-4 leukemia
NCI-H226 lung = test system: NCI-H226 lung
NCI-H23 lung = test system: NCI-H23 lung
NCI-H460 lung = test system: NCI-H460 lung
NCI-H522 lung = test system: NCI-H522 lung
NCI/ADR-RES ovarian = test system: NCI/ADR-RES ovarian
OVCAR-3 ovarian = test system: OVCAR-3 ovarian
OVCAR-4 ovarian = test system: OVCAR-4 ovarian
OVCAR-5 ovarian = test system: OVCAR-5 ovarian
OVCAR-8 ovarian = test system: OVCAR-8 ovarian
PC-3 prostate = test system: PC-3 prostate
RPMI-8226 leukemia = test system: RPMI-8226 leukemia
RXF 393 renal = test system: RXF 393 renal
SF-268 CNS = test system: SF-268 CNS
SF-295 CNS = test system: SF-295 CNS
SF-539 CNS = test system: SF-539 CNS
SK-MEL-2 melanoma = test system: SK-MEL-2 melanoma
SK-MEL-28 melanoma = test system: SK-MEL-28 melanoma
SK-MEL-5 melanoma = test system: SK-MEL-5 melanoma
SK-OV-3 ovarian = test system: SK-OV-3 ovarian
SN12C renal = test system: SN12C renal
SNB-19 CNS = test system: SNB-19 CNS
SNB-75 CNS = test system: SNB-75 CNS
SR leukemia = test system: SR leukemia
SW-620 colon = test system: SW-620 colon
T-47D breast = test system: T-47D breast
TK-10 renal = test system: TK-10 renal
U251 CNS = test system: U251 CNS
UACC-257 melanoma = test system: UACC-257 melanoma
UACC-62 melanoma = test system: UACC-62 melanoma
UO-31 renal = test system: UO-31 renal

## CC(C)OC(=O)c1ccc(CCc2cc(O)c(Br)cc2O)cc1
786-0 renal
  TGI: 25.4 µM
A498 renal
  TGI: 41.8 µM
A549 NSCLC
  TGI: 44.8 µM
ACHN renal
  TGI: 31.9 µM
BT-549 breast
  TGI: 30 µM
CAKI-1 renal
  TGI: 25 µM
CCRF-CEM leukemia
  TGI: 14.3 µM
COLO 205 colon
  TGI: 28.7 µM
DU-145 prostate
  TGI: 28.6 µM
EKVX NSCLC
  TGI: 29.4 µM
HCC-2998 colon
  TGI: 29.6 µM
HCT-116 colon
  TGI: 25.3 µM
HCT-15 colon
  TGI: 14 µM
HL-60(TB) leukemia
  TGI: 38.9 µM
HOP-62 NSCLC
  TGI: 24.7 µM
HOP-92 NSCLC
  TGI: 35.2 µM
HS 578T breast
  TGI: 42.1 µM
HT29 colon
  TGI: 37.4 µM
IGROV1 ovarian
  TGI: 23.1 µM
K-562 leukemia
  TGI: > 58.9 µM
KM12 colon
  TGI: 18.1 µM
LOX IMVI melanoma
  TGI: 20.8 µM
M14 melanoma
  TGI: 29.9 µM
MALME-3M melanoma
  TGI: 31.1 µM
MCF7 breast
  TGI: 29.4 µM
MDA-MB-231 breast
  TGI: 26.7 µM
MDA-MB-435
  TGI: 20.8 µM
MDA-N
  TGI: 24 µM
MOLT-4 leukemia
  TGI: 52.1 µM
NCI-H226 lung
  TGI: 39.8 µM
NCI-H23 lung
  TGI: 22.8 µM
NCI-H460 lung
  TGI: 34.5 µM
NCI-H522 lung
  TGI: 23.8 µM
NCI/ADR-RES ovarian
  TGI: 25.5 µM
OVCAR-3 ovarian
  TGI: 19.5 µM
OVCAR-4 ovarian
  TGI: 5.54 µM
OVCAR-5 ovarian
  TGI: 31.8 µM
OVCAR-8 ovarian
  TGI: 29.5 µM
PC-3 prostate
  TGI: 19.2 µM
RPMI-8226 leukemia
  TGI: 8.18 µM
RXF 393 renal
  TGI: 28.3 µM
SF-268 CNS
  TGI: 25.6 µM
SF-295 CNS
  TGI: 32.3 µM
SF-539 CNS
  TGI: 15.7 µM
SK-MEL-2 melanoma
  TGI: 26.7 µM
SK-MEL-28 melanoma
  TGI: 26.9 µM
SK-MEL-5 melanoma
  TGI: 28.3 µM
SK-OV-3 ovarian
  TGI: 35.6 µM
SN12C renal
  TGI: 28.9 µM
SNB-19 CNS
  TGI: 27.9 µM
SNB-75 CNS
  TGI: 46.5 µM
SR leukemia
  TGI: 64.9 µM
SW-620 colon
  TGI: 22 µM
T-47D breast
  TGI: 53.2 µM
TK-10 renal
  TGI: 30.6 µM
U251 CNS
  TGI: 17.5 µM
UACC-257 melanoma
  TGI: 26.4 µM
UACC-62 melanoma
  TGI: 34.4 µM
UO-31 renal
  TGI: 10.2 µM

## COc1ccc(NC(=S)N=Nc2c(O)[nH]c3ccccc23)cc1
786-0 renal
  TGI: > 55.9 µM
A498 renal
  TGI: > 83.3 µM
A549 NSCLC
  TGI: > 100 µM
ACHN renal
  TGI: > 95.4 µM
BT-549 breast
  TGI: 33.2 µM
CAKI-1 renal
  TGI: 98.3 µM
CCRF-CEM leukemia
  TGI: > 100 µM
COLO 205 colon
  TGI: > 100 µM
DU-145 prostate
  TGI: > 100 µM
EKVX NSCLC
  TGI: > 100 µM
HCC-2998 colon
  TGI: > 100 µM
HCT-116 colon
  TGI: > 100 µM
HCT-15 colon
  TGI: > 100 µM
HL-60(TB) leukemia
  TGI: > 100 µM
HOP-62 NSCLC
  TGI: > 45.5 µM
HOP-92 NSCLC
  TGI: > 78.7 µM
HS 578T breast
  TGI: > 100 µM
HT29 colon
  TGI: > 100 µM
IGROV1 ovarian
  TGI: > 100 µM
K-562 leukemia
  TGI: > 100 µM
KM12 colon
  TGI: > 100 µM
LOX IMVI melanoma
  TGI: > 100 µM
M14 melanoma
  TGI: > 100 µM
MALME-3M melanoma
  TGI: > 42.8 µM
MCF7 breast
  TGI: > 100 µM
MDA-MB-231 breast
  TGI: > 90.8 µM
MDA-MB-435
  TGI: > 100 µM
MDA-N
  TGI: > 100 µM
MOLT-4 leukemia
  TGI: > 100 µM
NCI-H226 lung
  TGI: > 100 µM
NCI-H23 lung
  TGI: > 100 µM
NCI-H460 lung
  TGI: > 100 µM
NCI-H522 lung
  TGI: > 100 µM
NCI/ADR-RES ovarian
  TGI: > 42.6 µM
OVCAR-3 ovarian
  TGI: > 58.6 µM
OVCAR-4 ovarian
  TGI: > 95.2 µM
OVCAR-5 ovarian
  TGI: > 100 µM
OVCAR-8 ovarian
  TGI: > 76.2 µM
PC-3 prostate
  TGI: > 70 µM
RPMI-8226 leukemia
  TGI: > 100 µM
RXF 393 renal
  TGI: > 61 µM
SF-268 CNS
  TGI: > 100 µM
SF-295 CNS
  TGI: > 58.5 µM
SF-539 CNS
  TGI: > 70.4 µM
SK-MEL-2 melanoma
  TGI: > 76.4 µM
SK-MEL-28 melanoma
  TGI: > 100 µM
SK-MEL-5 melanoma
  TGI: > 100 µM
SK-OV-3 ovarian
  TGI: > 68.8 µM
SN12C renal
  TGI: > 89 µM
SNB-19 CNS
  TGI: > 100 µM
SNB-75 CNS
  TGI: > 78.8 µM
SR leukemia
  TGI: > 100 µM
SW-620 colon
  TGI: > 100 µM
T-47D breast
  TGI: > 100 µM
TK-10 renal
  TGI: > 79 µM
U251 CNS
  TGI: > 59.9 µM
UACC-257 melanoma
  TGI: > 100 µM
UACC-62 melanoma
  TGI: > 100 µM
UO-31 renal
  TGI: > 100 µM
